Results as given in the NIST ThermoML archive (doi:10.1021/je800266e).
Numbers after ± are expanded uncertainties.

Key:
[1] = for Triple point temperature: Adiabatic calorimetry; for Normal melting temperature: DTA
[2] = molar heat capacity at constant pressure; settings: 101.33 kPa, Small (less than 1 g) adiabatic calorimetry
[3] = Molar enthalpy of transition or fusion

CCC(=O)[c-]1cccc1.[Fe+2].c1cc[cH-]c1 [propanoylferrocene]
[1], Crystal
Settings	Normal melting temperature [°C]	Triple point temperature [K]
–	5.1 ± 2	276.83 ± 1

Settings	Molar enthalpy of transition or fusion [kcal/mol]	molar heat capacity at constant pressure [J/K/mol]
[2], 10 K, Crystal	–	4.607 ± 0.097
[2], 15 K, Crystal	–	11.25 ± 0.18
[2], 20 K, Crystal	–	18.61 ± 0.25
[2], 25 K, Crystal	–	26.27 ± 0.28
[2], 30 K, Crystal	–	34.16 ± 0.27
[2], 35 K, Crystal	–	42.07 ± 0.31
[2], 40 K, Crystal	–	49.63 ± 0.35
[2], 45 K, Crystal	–	56.35 ± 0.38
[2], 50 K, Crystal	–	61.76 ± 0.41
[2], 55 K, Crystal	–	66.08 ± 0.43
[2], 60 K, Crystal	–	70.11 ± 0.45
[2], 65 K, Crystal	–	74.36 ± 0.47
[2], 70 K, Crystal	–	79.11 ± 0.5
[2], 75 K, Crystal	–	84.35 ± 0.52
[2], 80 K, Crystal	–	89.8 ± 0.55
[2], 90 K, Crystal	–	99.79 ± 0.6
[2], 100 K, Crystal	–	108.7 ± 0.6
[2], 110 K, Crystal	–	116.7 ± 0.7
[2], 120 K, Crystal	–	124.2 ± 0.7
[2], 130 K, Crystal	–	131.6 ± 0.7
[2], 140 K, Crystal	–	138.9 ± 0.8
[2], 150 K, Crystal	–	146.4 ± 0.8
[2], 160 K, Crystal	–	154 ± 0.8
[2], 170 K, Crystal	–	161.9 ± 0.8
[2], 180 K, Crystal	–	170 ± 0.9
[2], 190 K, Crystal	–	178.3 ± 0.9
[2], 200 K, Crystal	–	186.8 ± 0.9
[2], 210 K, Crystal	–	195.4 ± 1
[2], 220 K, Crystal	–	204.1 ± 1
[2], 230 K, Crystal	–	212.9 ± 1.1
[2], 240 K, Crystal	–	221.9 ± 1.1
[2], 250 K, Crystal	–	231 ± 1.1
[2], 260 K, Crystal	–	240.3 ± 1.2
[2], 270 K, Crystal	–	250.1 ± 1.2
[2], 280 K, Crystal	–	260.5 ± 1.2
[2], 290 K, Crystal	–	271.7 ± 1.3
[2], 298.15 K, Crystal	–	280.7 ± 1.3
[2], 300 K, Crystal	–	282.7 ± 1.3
[2], 310 K, Crystal	–	293.8 ± 1.4
[2], 311.13 K, Crystal	–	295 ± 1.4
[2], 311.13 K, Liquid	–	347.6 ± 1.6
[2], 320 K, Liquid	–	353.3 ± 1.6
[2], 330 K, Liquid	–	359.7 ± 1.6
[2], 340 K, Liquid	–	365.7 ± 1.7
[2], 350 K, Liquid	–	372.9 ± 1.7
[2], 360 K, Liquid	–	378.5 ± 1.7
[2], 370 K, Liquid	–	381.9 ± 1.7
[3], Crystal, Adiabatic calorimetry	3.04 ± 0.0813	–
[3], Crystal, DSC	3.51 ± 0.239	–

CCC[c-]1cccc1.[Fe+2].c1cc[cH-]c1 [propylferrocene]
Settings	Molar enthalpy of transition or fusion, Crystal 1, Adiabatic calorimetry [kcal/mol]	Molar enthalpy of transition or fusion, Crystal 1, DSC [kcal/mol]	Molar enthalpy of transition or fusion, Crystal 2, Adiabatic calorimetry [kcal/mol]	Normal melting temperature, Crystal 1 [°C]	Triple point temperature, Crystal 1 [K]	Triple point temperature, Crystal 2 [K]
[1]	–	–	–	38.47 ± 2	311.62 ± 1	186.7 ± 0.6
[3]	4.58 ± 0.0574	4.71 ± 0.239	0.294 ± 0.00956	–	–	–

[2]
Settings	molar heat capacity at constant pressure [J/K/mol]
5 K, Crystal 2	0.5339 ± 0.032
10 K, Crystal 2	3.806 ± 0.084
15 K, Crystal 2	11.48 ± 0.18
20 K, Crystal 2	20.55 ± 0.27
25 K, Crystal 2	29.5 ± 0.32
30 K, Crystal 2	37.6 ± 0.29
35 K, Crystal 2	44.82 ± 0.33
40 K, Crystal 2	51.46 ± 0.36
45 K, Crystal 2	57.41 ± 0.39
50 K, Crystal 2	62.94 ± 0.42
55 K, Crystal 2	68.11 ± 0.44
60 K, Crystal 2	72.96 ± 0.47
65 K, Crystal 2	77.55 ± 0.49
70 K, Crystal 2	81.91 ± 0.51
75 K, Crystal 2	86.11 ± 0.53
80 K, Crystal 2	89.89 ± 0.55
90 K, Crystal 2	98.25 ± 0.59
100 K, Crystal 2	106.2 ± 0.6
110 K, Crystal 2	114.1 ± 0.7
120 K, Crystal 2	122 ± 0.7
130 K, Crystal 2	130.2 ± 0.7
140 K, Crystal 2	139.3 ± 0.8
150 K, Crystal 2	149.6 ± 0.8
160 K, Crystal 2	161.7 ± 0.8
170 K, Crystal 2	173.8 ± 0.9
180 K, Crystal 2	185.9 ± 0.9
186.7 K, Crystal 1	191.3 ± 1
186.7 K, Crystal 2	194 ± 1
190 K, Crystal 1	193.3 ± 1
200 K, Crystal 1	199.5 ± 1
210 K, Crystal 1	205.6 ± 1
220 K, Crystal 1	212.1 ± 1
230 K, Crystal 1	220.2 ± 1.1
240 K, Crystal 1	230.2 ± 1.1
250 K, Crystal 1	244.6 ± 1.2
260 K, Crystal 1	274.7 ± 1.3
270 K, Crystal 1	324 ± 1.5
276.03 K, Crystal 1	286.8 ± 1.4
276.03 K, Liquid	305.9 ± 1.4
280 K, Liquid	308.4 ± 1.4
290 K, Liquid	314.9 ± 1.5
298.15 K, Liquid	319.5 ± 1.5
300 K, Liquid	320.5 ± 1.5
310 K, Liquid	325.8 ± 1.5
320 K, Liquid	331.8 ± 1.5
330 K, Liquid	338.2 ± 1.6
340 K, Liquid	344.4 ± 1.6
350 K, Liquid	350.7 ± 1.6
360 K, Liquid	356.6 ± 1.6
370 K, Liquid	361.5 ± 1.6
